We go through one compound from publication PMC4359187 (Drugs in R&D, 2015).

Data set [1] relates to hERG channels heterologously expressed in HEK293 cells. The following applies: cited from earlier work.
Data set [2] concerns HIV-positive patients. The following applies: saquinavir monotherapy, 84 patients; cited from earlier work.
Data set [3] deals with treatment-naïve HIV-1-infected patients. Nature of the data set: Continuous Holter 12-lead ECG. In kind it is in vivo, human. The following applies: modified saquinavir/ritonavir regimen.

With `CC(C)(C)NC(=O)[C@@H]1C[C@@H]2CCCC[C@@H]2CN1C[C@@H](O)[C@H](Cc1ccccc1)NC(=O)[C@H](CC(N)=O)NC(=O)c1ccc2ccccc2n1` [Saquinavir, saquinavir], the “Blockage of hERG channels” value in data set [1] (hERG heterologously expressed in HEK293 cells) is given as “dose-dependent blockage”. In data set [1] (in vitro), the “Effect on hERG trafficking” value is “inhibitory effects”. The “Clinical EC50 value, C min” value in data set [2] was 0.05 µg/mL. For the same compound, the “Correlation between maximum ∆QTcFdense and C max of saquinavir” value in data set [3] is “No strong correlation”.
